Measurements reported in patent US20230285405A1, “Pharmaceuticals for Treating or Preventing Nidoviruses and Picornaviruses” (priority 2020, published 2023).
Where a name gives a salt, the structure may show the parent alone. Read-outs that look alike come from different tables or passages of the source.

How the values were obtained:
OC43 = assay: Drug screening: OC43 nucleoprotein staining in infected A549-mRuby cells; type: cell-based, human beta coronavirus OC43; conditions: 10 μM drug; for activity at 10 µM: Betacoronavirus 1, OC43, 96 h; for activity at 10 µM / OC43_mean / OC43_1: % staining of OC43 in screen repeat #1 / OC43_2: % staining of OC43 in screen repeat #2: MOI 0.3, 4 days
Procedure: A549-mRuby cells were seeded (3,000 cells per well) in nine 384-well plates using Multidrop combi. Cells were seeded in a final volume of 30 μl with DMEM+10% BCS. The following day, 20 μl of OC43 were added (MOI 0.3) and incubated at 33° C., 5% CO2 for 1 hour. 50 nl from the Selleck FDA-approved drug library (cat #L1300, Selleck) were added (1:1,000 dilution). Two columns (32 wells) were left uninfected and two columns were treated with DMSO and virus (no drug control). Cells were imaged using the IncuCyte S3 to measure cell numbers at day 0. Cells were incubated for 4 days at 33° C., 5% CO2 and were stained for OC43 nucleoprotein. All the following steps were performed at room temperature. Cells were fixed in 50 μl 4% PFA/PBS for 15 min, blocked with 50 μl 10% BSA+0.5% Triton X-100 in PBS for 30 minutes, stained with 50 μl anti-OC43 (cat #MAB9013, Milipore) diluted 1:2,000 in 2% BSA+0.1% Triton X-100 in PBS for 1 hour, washed with 50 μl PBS three times, stained with anti-mouse-AlexaFluor488 diluted 1:1,000 in 2% BSA+0.1% Triton X-100 in PBS for 1 hour, washed with 50 μl PBS three times and imaged on the IncuCyte S3 (day 4). The screen was performed twice.
(§1) The following parameters were extracted from the images: number of cells at day 0, number of cells at day 4 and total OC43 staining intensity at day 4. For analysis, OC43 staining intensity was normalized to the number of cells in the well and further normalized to the mean of the no drug controls, which was set to 100. […] For each plate, a drug was considered as a putative hit if it reduced OC43 staining by over 3 standard deviations from the mean of the no drug controls. Drugs were considered hits if they were not toxic and reduced OC43 staining by over 3 standard deviations in both repeats.
(§2) A library of 1,900 clinically used drugs was screened, the drugs either approved for human use or having extensive safety data in humans (Phase 2 or 3 clinical trials), for their ability to inhibit OC43 infection of the human lung epithelial cell line A549 (expressing an H2B-mRuby nuclear reporter). One day after plating, cells were infected at an MOI of 0.3, incubated at 33° C. for 1 hour and drugs were added to a final concentration of 10 μM. Cells were then incubated at 33° C. for 4 days, fixed and stained for the presence of the viral nucleoprotein. The cells were imaged at day 0 (following drug addition) and day 4 (after staining) to determine the drugs effect on cell growth and OC43 infection.

A549-mRuby cells = assay: Drug screening: effect on cell growth (cell number day 4 / day 0); conditions: 10 μM drug; for Growth_1: number of cells at day 4 divided by number of cells at day 0 / toxic_1: repeat #1; for Growth_2: number of cells at day 4 divided by number of cells at day 0 / toxic_2: repeat #2
Procedure: A549-mRuby cells were seeded (3,000 cells per well) in nine 384-well plates using Multidrop combi. Cells were seeded in a final volume of 30 μl with DMEM+10% BCS. The following day, 20 μl of OC43 were added (MOI 0.3) and incubated at 33° C., 5% CO2 for 1 hour. 50 nl from the Selleck FDA-approved drug library (cat #L1300, Selleck) were added (1:1,000 dilution). Two columns (32 wells) were left uninfected and two columns were treated with DMSO and virus (no drug control). Cells were imaged using the IncuCyte S3 to measure cell numbers at day 0. Cells were incubated for 4 days at 33° C., 5% CO2 and were stained for OC43 nucleoprotein. All the following steps were performed at room temperature. […] The screen was performed twice.
as §1, §2

[1] = OC43 staining normalized to no-drug controls, mean of the two screen repeats, read-out: OC43_mean
[2] = normalized to no-drug controls in the same plate, repeat #1, read-out: OC43_1: % staining of OC43 in screen repeat #1
[3] = normalized to no-drug controls in the same plate, repeat #2, read-out: OC43_2: % staining of OC43 in screen repeat #2
[4] = OC43 staining normalized to no-drug controls, mean of the two screen repeats
[5] = normalized to no-drug controls in the same plate, repeat #1
[6] = normalized to no-drug controls in the same plate, repeat #2

COc1cc2nc(N3CCN(C(=O)C4COc5ccccc5O4)CC3)nc(N)c2cc1OC (stereo not drawn) [Doxazosin Mesylate]
hit_1 (OC43; repeat #1): 1 | hit_2 (OC43; repeat #2): 1 | activity at 10 µM (OC43; [1]): 29.7% | activity at 10 µM (OC43; [2]): 50.1% | activity at 10 µM (OC43; [3]): 9.2% | Growth_1: number of cells at day 4 divided by number of cells at day 0 (A549-mRuby cells): 5.2 | toxic_1 (A549-mRuby cells): 0 | Growth_2: number of cells at day 4 divided by number of cells at day 0 (A549-mRuby cells): 4.9 | toxic_2 (A549-mRuby cells): 0

Cc1ccccc1C(OCCN(C)C)c1ccccc1 (stereo not drawn) [Orphenadrine Hydrochloride]
hit_1 (OC43; repeat #1): 1 | hit_2 (OC43; repeat #2): 1 | activity at 10 µM (OC43; [1]): 37.6% | activity at 10 µM (OC43; [2]): 11.7% | activity at 10 µM (OC43; [3]): 63.6% | Growth_1: number of cells at day 4 divided by number of cells at day 0 (A549-mRuby cells): 4.6 | toxic_1 (A549-mRuby cells): 0 | Growth_2: number of cells at day 4 divided by number of cells at day 0 (A549-mRuby cells): 5.1 | toxic_2 (A549-mRuby cells): 0

C[C@@H]1[C@H](O)[C@@H](C)/C=C/C=C/CC/C=C/C=C/C=C/C=C/C(O[C@H]2O[C@H](C)[C@@H](O)[C@H](N)[C@@H]2O)CC2O[C@](O)(CC(O)C(O)CCC(O)CC(O)CC(O)CC(=O)O[C@H]1C)CC(O)C2C(=O)O (stereo partly drawn) [Nystatin (Fungicidin), Nystatin]
OC43_mean (OC43; [4]): 23.3% | OC43_1: % staining of OC43 in screen repeat #1 (OC43; [5]): 27.8% | OC43_2: % staining of OC43 in screen repeat #2 (OC43; [6]): 18.8% | hit_1 (OC43; repeat #1): 1 | hit_2 (OC43; repeat #2): 1 | Growth_1: number of cells at day 4 divided by number of cells at day 0 (A549-mRuby cells): 4.6 | toxic_1 (A549-mRuby cells): 0 | Growth_2: number of cells at day 4 divided by number of cells at day 0 (A549-mRuby cells): 5.9 | toxic_2 (A549-mRuby cells): 0

CC[C@H]1OC(=O)[C@H](C)[C@@H](O[C@H]2C[C@@](C)(OC)[C@@H](O)[C@H](C)O2)[C@H](C)[C@@H](O[C@@H]2O[C@H](C)C[C@H](N(C)C)[C@H]2O)[C@](C)(O)C[C@@H](C)C(=O)[C@H](C)[C@@H](O)[C@]1(C)O.N#CS [Erythromycin thiocyanate]
OC43_mean (OC43; [4]): 58.7% | OC43_1: % staining of OC43 in screen repeat #1 (OC43; [5]): 50.6% | OC43_2: % staining of OC43 in screen repeat #2 (OC43; [6]): 66.8% | hit_1 (OC43; repeat #1): 1 | hit_2 (OC43; repeat #2): 1 | Growth_1: number of cells at day 4 divided by number of cells at day 0 (A549-mRuby cells): 4.1 | toxic_1 (A549-mRuby cells): 0 | Growth_2: number of cells at day 4 divided by number of cells at day 0 (A549-mRuby cells): 4.6 | toxic_2 (A549-mRuby cells): 0

O=C(Nc1ccccc1)OCC(CN1CCCCC1)OC(=O)Nc1ccccc1 (stereo not drawn) [Diperodon HCl]
hit_1 (OC43; repeat #1): 1 | hit_2 (OC43; repeat #2): 1 | activity at 10 µM (OC43; [1]): 42.9% | activity at 10 µM (OC43; [2]): 24.2% | activity at 10 µM (OC43; [3]): 61.6% | Growth_1: number of cells at day 4 divided by number of cells at day 0 (A549-mRuby cells): 4.6 | toxic_1 (A549-mRuby cells): 0 | Growth_2: number of cells at day 4 divided by number of cells at day 0 (A549-mRuby cells): 4.4 | toxic_2 (A549-mRuby cells): 0

Carvedilol Phosphate
OC43_mean (OC43; [4]): 28.9% | OC43_1: % staining of OC43 in screen repeat #1 (OC43; [5]): 32.3% | OC43_2: % staining of OC43 in screen repeat #2 (OC43; [6]): 25.5% | hit_1 (OC43; repeat #1): 1 | hit_2 (OC43; repeat #2): 1 | Growth_1: number of cells at day 4 divided by number of cells at day 0 (A549-mRuby cells): 4.4 | toxic_1 (A549-mRuby cells): 0 | Growth_2: number of cells at day 4 divided by number of cells at day 0 (A549-mRuby cells): 2.9 | toxic_2 (A549-mRuby cells): 0

C[C@@H]1CCN(C(=O)CC#N)C[C@@H]1N(C)c1ncnc2[nH]ccc12.O=C(O)CC(O)(CC(=O)O)C(=O)O [Tofacitinib (CP-690550) Citrate]
OC43_mean (OC43; [4]): 58.5% | OC43_1: % staining of OC43 in screen repeat #1 (OC43; [5]): 56.5% | OC43_2: % staining of OC43 in screen repeat #2 (OC43; [6]): 60.4% | hit_1 (OC43; repeat #1): 1 | hit_2 (OC43; repeat #2): 1 | Growth_1: number of cells at day 4 divided by number of cells at day 0 (A549-mRuby cells): 4.8 | toxic_1 (A549-mRuby cells): 0 | Growth_2: number of cells at day 4 divided by number of cells at day 0 (A549-mRuby cells): 4.7 | toxic_2 (A549-mRuby cells): 0

CN1[C@@H]2CC[C@H]1C[C@@H](OC(=O)c1c[nH]c3ccccc13)C2 [Tropisetron HCl]
hit_1 (OC43; repeat #1): 1 | hit_2 (OC43; repeat #2): 1 | activity at 10 µM (OC43; [1]): 58% | activity at 10 µM (OC43; [2]): 52.6% | activity at 10 µM (OC43; [3]): 63.4% | Growth_1: number of cells at day 4 divided by number of cells at day 0 (A549-mRuby cells): 5.8 | toxic_1 (A549-mRuby cells): 0 | Growth_2: number of cells at day 4 divided by number of cells at day 0 (A549-mRuby cells): 5.5 | toxic_2 (A549-mRuby cells): 0
